Source: patent US20220401423A1, “METHODS FOR TREATING INFLAMMATORY BOWEL DISEASE” (Angion Biomedica Corp., priority 2019, published 2022)

What was measured:
TNBS-induced colitis [1] = test: TNBS-induced IBD/acute colitis mouse model, dose response (Example 3); type: in vivo
Text: Intracolonic administration of TNBS (2,4,6-trinitrobenzenesulfonic acid)/ethanol induces a severe illness characterized by bloody diarrhea and a dramatic loss of body weight during the first week with increased colon damage score (Mateus, V., et al. Clin. Exp. Gastroenterol. 2018; 11:325-334). TNBS-induced colitis, characteristic of acute colitis and the early phase of IBD, is a commonly utilized animal model in rodents that shares significant properties with human Crohn's disease. Advantages of this model include reproducibility and technical simplicity (Filipescu, I. E., et al. PLoS One 2018 Aug. 23; 13(8):e0202929). The use of TNBS-induced colitis has been valuable in elucidating the mechanisms that mediate disease immune-pathogenesis. TNBS-induced colitis is a well-validated animal model to assess compounds with potential therapeutic effects such as anti-TNFα, corticosteroids, natural compounds and traditional medicine (Mateus 2018; Filipescu 2018; Wirtz, S. et al. Nat. Protoc. 2017 July; 12(7):1295-1309). Compound 1 was therefore tested in the well-established model of TNBS-induced IBD/Acute Colitis.
In this IBD model, 2,4,6-trinitrobenzenesulfonic acid (TNBS) was used to induce disease. The inflammatory bowel disease (IBD)/acute colitis model was conducted in male CD-1 mice, body weights 30-35 grams, from Charles River Laboratories (CRL). After receipt from the vendor, animals were acclimatized to the animal facility at least 5 days following the animal facility standard operating procedures. All animals were fed the normal chow diet, had access to water ad libitum and housed in a single room of the animal facility with a 12:12 hr light-dark cycle and independent ventilation, temperature and humidity control.
Compound 1 was dissolved in distilled water at 0.9 mg/mL, 2.7 mg/mL and 8.1 mg/mL, and 200 μL was administered via oral gavage into each mouse.
Male CD-1 mice were starved overnight. Then, mice (n=33) were infused with […] (2 mg/mouse) in 50% ethanol in a 100 μL volume via rectal enema under isoflurane anesthesia. A sham group (n=6) received an equal volume of 50% ethanol. […] Remaining Sham (n=4) and TNBS mice (n=7/group) were randomized to vehicle or Compound 1 treatment at 5 mg/kg, 15 mg/kg, and 45 mg/kg, PO, BID for 4 days.
After 4 days of Compound 1 or vehicle treatment, mice were sacrificed. Body weight (FIG. 5), colon length (FIG. 6 and FIG. 8), colon weight (FIG. 7), and gross morphological score/disease severity scores (FIG. 9; normal=0 and severe=4) were recorded. Blood/serum was collected. The mid and distal part of the colon was fixed in 10% neutral buffered formalin and the proximal part of the colon was snap frozen in liquid nitrogen and stored at minus 80° C. until use.
Histological scoring. After overnight fixation in formalin, tissues were dehydrated (graded alcohols) and cleared (xylene) before being embedded in paraffin wax. Sections of tissue were cut and stained with hematoxylin and eosin (H & E) and scored in a blinded manner (FIG. 10). Histological scoring was based on a semi-quantitative scoring system as published (Lab Invest. 1993 August; 69(2):238-49). The following were ranked: the extent of the destruction of normal mucosal architecture (0, normal; 1, 2, and 3, mild, moderate, and extensive damage, respectively), presence and degree of cellular infiltration (0, normal; 1, 2, and 3, mild, moderate, and transmural infiltration, respectively), extent of muscle thickening (0, normal; 1, 2, and 3, mild, moderate, and extensive thickening, respectively), crypt damage/goblet cell depletion (0, no loss, 1, 2, 3 for mild, moderate and extensive loss of goblet cells respectively (FIG. 11). The scores for each feature were summed with a maximum possible colon injury score of 12 (FIG. 12).
Alcian Blue/Fast red staining. Formalin fixed, paraffin embedded colon tissue sections were used for Alcian blue staining to evaluate crypt damage/goblet cell loss. […]

collagen levels = test: Antifibrotic activity, collagen levels (FIG. 23); settings: model not stated
[2] = tested on: DSS-induced chronic colitis/IBD; test: DSS-induced chronic colitis/IBD mouse model; type: in vivo; settings: 50 mg/kg, PO, BID, started 72 hours after DSS, 4 weeks; for colon length: compared to DSS-vehicle cohort
Text: DSS is a sulfated polymer that alters tight junction proteins, leading to the disruption of the intestinal barrier, and is toxic to epithelial cells. Results obtained in DSS-induced animal IBD models have helped to understand the pathogenesis of IBD and to screen potential therapeutic agents. DSS-induced IBD is simple and reproducible and results in symptoms resembling those of ulcerative colitis. The development of acute, chronic, or relapsing symptoms of IBD is dose-dependent, and the molecular weight of the DSS is key not only in the induction of colitis but also in the location of induction. […] Various DSS dosage and duration are used to induce IBD in some animal models. Following DSS administration, animals usually develop colitis with weight loss and severe, bloody diarrhea. DSS colitis is characterized by mucosal ulceration, leukocyte infiltration, intestinal crypt distortion and epithelial hyperplasia.
Adult male CD-1 mice were fed 3% DSS in drinking water for 5 days with alternate cycles of normal drinking water for 5 days and continued a total of 3 DSS cycles in 4 weeks. This model has been established to induce chronic colitis/IBD. Vehicle (n=10/group) or Compound 1 (50 mg/kg, PO, BID) were administered 72 hours after DSS and continued treatment for 4 weeks, then all mice were sacrificed. A small group (n=6) with normal drinking water was included as a sham control. Gross morphological and histopathological end points were evaluated. Additionally, tissue from the middle colon (100 mg) from all groups was subjected to hydroxyproline assay for collagen estimation as a fibrotic end point.

[3] = tested on: Acetic acid-induced colitis; test: Acetic acid (AA) induced colitis mouse model; type: in vivo
Text: Acetic acid-induced colitis is a common experimental animal model for IBD. Animals treated with acetic acid develop many pathological and histopathological characteristics in common with human ulcerative colitis. Rectal administration of acetic acid damages the mucosal epithelium and induces ulcerative colitis. The severity of the mucosal lesions that develop in acetic acid-induced colitis depends on the acetic acid concentration and the length of exposure. For example, injection of 25% acetic acid (AA) into the gastric lumen causes larger ulcerative lesions than injection of 5% acetic acid. Different concentrations of acetic acid and different exposure times have been reported to induce IBD in a rat model. Transmural necrosis in all layers of the bowel wall, severe neutrophil infiltration of the intestinal tissue, goblet cell depletion, edema, and submucosal ulceration are common manifestations of this model. Bloody diarrhea, reduction of the intestinal mucus, decreased nucleic acid (DNA and RNA) and total protein content, and increased colon weight and vascular permeability have also been observed. […] Acetic acid-induced colitis is also associated with changes NF-κB, inhibitor of κB (IκB) and IκB kinase expression.
Male CD-1 mice were infused with 4% AA in saline in 150 μL volume through rectal enema under isoflurane anesthesia. A sham group (n=6) received an equivalent volume of saline.
The remaining AA-treated mice (n=9 for each group) were then randomized to vehicle and/or Compound 1 treatment at 50 mg/kg, PO, BID for 3 days.

TNBS-induced colitis [4] = test: TNBS-induced colitis mouse model, 50 mg/kg (Example 5); type: in vivo
Protocol: Using the same TNBS mouse model for IBD as described in Example 3, an experiment was performed with a 50 mg/kg dose of Compound 1, as described below.
Male CD-1 mice were infused with TNBS (2 mg/mouse) in 45% ethanol and 5% PBS in 150 μL volume through rectal enema under isoflurane anesthesia. A sham group (n=6) received an equal volume of 45% ethanol and PBS mixture.
Remaining TNBS mice (n=12/group) were randomized to vehicle or Compound 1 at 50 mg/kg, PO, BID for 3 days.

[5] = 15 mg/kg and 45 mg/kg, BID, PO, 4 days, started 3 days after TNBS
[6] = 15 mg/kg and 45 mg/kg, BID, PO, 4 days, compared to pre-treatment and vehicle treated animals
[7] = 50 mg/kg, PO, BID for 3 days, started 72 hours after AA, compared to vehicle cohort
[8] = 50 mg/kg, PO, BID for 3 days, started 72 hours after TNBS, compared to vehicle cohort

## COC(=O)c1ccc2c(n1)NC(=O)/C2=C(\Nc1ccc(N(C)C(=O)CN2CCN(C)CC2)cc1)c1ccccc1 [Compound 1, (Z)-methyl 3-(((4-(N-methyl-2-(4-methylpiperazin-1-yl)acetamido)phenyl)amino)(phenyl)methylene)-2-oxo-2,3-dihydro-1H-pyrrolo[2,3-b]pyridine-6-carboxylate]
TNBS-induced colitis [1]; 5 mg/kg and higher, BID, PO, 4 days, versus TNBS+vehicle treated animals
  MPO-staining of colon tissue: significantly decreased
TNBS-induced colitis [1]; [5]
  body weight: significantly restored
  colon length: significantly restored
  colon weight: significantly restored
TNBS-induced colitis [1]; [6]
  TNBS-induced goblet cell loss (Alcian Blue staining): significantly reduced
  colon histology (H&E histological scoring): markedly improved
TNBS-induced colitis [1]; 15 mg/kg and 45 mg/kg, BID, PO, 4 days, score 0 (normal)-4 (severe)
  Disease Severity Index: marked improvement
TNBS-induced colitis [1]; 15 mg/kg and higher, BID, PO, 4 days, versus TNBS+vehicle treated animals
  F4/80-staining of colon tissue: significantly decreased
TNBS-induced colitis [1]; FIG. 5-9
  IBD symptoms (body weight, colon length, colon weight, disease severity index): recover from IBD symptoms
Collagen levels
  collagen levels (antifibrotic activity): reduced
[2]
  macroscopic colon damage score (appearance, inflammation, rectal bleeding): decreased
  colon length: significantly increased
[2]; H&E stained colon sections
  histopathological injury score (crypt damage, epithelial erosion, inflammatory cell infiltration): decreased
[2]; listed as test compound
  colon length: significantly restored
[2]; middle colon tissue
  colonic hydroxyproline (HYP): decreased
[3]; [7]
  decrease in colon length: significantly mitigated the decrease
  gross morphological colon damage: significantly mitigated
  histopathological colon damage (mucosal wall thickness, crypt/villi architecture): significantly mitigated
[3]; FIG. 2A-2E
  AA-induced colitis (colon length, colon gross damage score, histopathological damage score, Alcian blue, H&E staining): significantly decreased
TNBS-induced colitis [4]; [8]
  colon architecture (Alcian blue staining for goblet cells of crypt/villi): preserved
  colon damage score: decreased
  colon histopathological score: decreased
  colon length: restored
  mortality: significantly decreased
TNBS-induced colitis [4]; 50 mg/kg, PO, BID for 3 days, serum
  TNBS-induced increase in serum cytokines (interleukin-1α, TNFα, PDGF): significantly blocked
TNBS-induced colitis [4]; FIG. 25A-25F
  IBD symptoms (colon length, colon gross damage score, Alcian blue staining of goblet cells, colon histopathological score): recover from IBD symptoms
TNBS-induced colitis [4]; TNBS induced colitis mortality model, FIG. 3
  survival: increased
